Data from patent publication US20250282764A1, “IMIDAZOLE HETEROCYCLE BASED COMPOUNDS AND METHODS OF TREATING CANCER” (King Abdulaziz University, priority 2024, published 2025).
pIC50: −log10 of the molar value. Read-outs that look alike come from different tables or passages of the source.

Key:
DLD1 = assay: CellTiter-Blue cell viability assay, DLD1; type: cell-based, human; settings: 48 h, 50% cell viability vs untreated, mean of triplicates
Protocol: (§1) Cell culture of colorectal carcinoma cell lines was performed as follows. DLD-1, HCT116, and HT-29 cells were purchased from CLS Cell Line Service GmbH (Eppelheim, Germany) and cultured in Dulbecco's Modified Eagle Medium (DMEM) high glucose, GlutaMAX™ Supplement, pyruvate (Thermo Fisher Scientific, Paisley, UK) supplemented with 10% fetal bovine serum (FBS; Thermo Fisher Scientific), 200 U/mL penicillin, and 200 μg/ml streptomycin (Thermo Fisher Scientific), at 37° C. with 5% CO2 in a humidified incubator.
(§2) The CellTiter®-Blue Cell Viability assay was acquired from Promega Corporation (Madison, WI, USA). Cell viability assay was performed as follows: DLD-1 (4×10^3/well), HCT116 (4×10^3/well), and HT-29 (7×10^3/well) were incubated with a concentration gradient of compound (Id) ranging from 0.01 to 20 μM, in 96-well plates for 48 h at 37° C. Subsequently, 20 μl CellTiter®-Blue Cell Viability reagent was added to each well and incubated for an additional 2 h for the development of fluorescence. The fluorescence emission was measured at 590 nm using a SpectraMax® i3× Multi-Mode microplate reader (Molecular Devices, LLC, San Jose, CA, USA) and plotted against drug concentrations to determine the mean inhibitory concentration of compound (Id) producing 50% decrease in cell viability (IC50). Experiments were performed in triplicates.

HCT116 = assay: CellTiter-Blue cell viability assay, HCT116; type: cell-based, human; settings: 50% cell viability vs untreated, mean of triplicates
Protocol: as §1, §2

MV4-11 = assay: CellTiter-Blue cell viability assay, MV4-11; type: cell-based, human; settings: 48 h, mean of triplicates
Protocol: (§3) Cell culture of leukemia cell lines model was performed as follows. HL60, K562, and NB4 cell lines were purchased from CLS Cell Line Service GmbH (Eppelheim, Germany). MV4-11 cell line was purchased from American Type Culture Collection (ATCC; Virginia, USA). KG1α also referred to as KG1a was a gift from Prof. Ghulam Mufti (King College London, UK). Kasumi-1 cell line was purchased from Nawah Scientific (Cairo, Egypt). All cell lines were cultured in Roswell Park Memorial Institute-1640 (RPMI-1640) culture medium supplemented with 10% fetal bovine serum (FBS) (Thermo Fisher Scientific) and 0.1% ciprofloxacin (10 μg/ml; Cipla Limited; Mumbai, India). Cells were maintained in a humidified incubator at 37° C. with 5% CO2.
(§4) Cell viability was determined using the CellTiter-Blue® Cell Viability Assay kit (Promega, Madison, WI, USA). Approximately […] were plated in 96 well plate in the presence of increasing drug concentration in triplicate and incubated for 48 h at 37° C. in a humidified incubator. After the incubation period, 20 μL of the cell titer blue reagent was added to each well and the plate was incubated for additional 2 h for the development of florescence. Florescence was measured at 540Ex/590Em on SpectraMax i3 Multi-Mode Microplate Reader (Molecular Devices, LLC; San Jose, CA, USA). […]

K562 = assay: CellTiter-Blue cell viability assay, K562; type: cell-based, human; settings: 48 h, mean of triplicates
Protocol: as §3, §4

Kasumi-1 = assay: CellTiter-Blue cell viability assay, Kasumi-1; type: cell-based, human; settings: 48 h, mean of triplicates
Protocol: as §3, §4

KG1a = assay: CellTiter-Blue cell viability assay, KG1a; type: cell-based, human; settings: 48 h, mean of triplicates
Protocol: as §3, §4

[1] = Stability in mouse liver microsomes; type: in vitro ADME
Protocol: The clearance of compound (Id) in mouse or human liver microsomes was determined at 37° C. Both mouse and human liver microsomes were obtained from Merck KGaA, (Darmstadt, Germany), Cat. No. M9441 (Mouse liver microsomes) and M0317 (Human liver microsomes). Assays were conducted in triplicate in 96-deep well polypropylene plates. […] At five time points, reaction mixture aliquots were transferred to 96-shallow well stop plates on ice containing acetonitrile with 0.1 μM propafenone. […] Standard curves for test compounds were generated using 5 concentrations in triplicate that were processed as above but with zero incubation time. Stop plates were centrifuged at 2000 g for 10 min and then supernatant aliquots were transferred to a Waters Aquity® UPLC 700 μL 96-well sample plate with cap mat (Waters, Milford, MA). The amount of compound remaining in the supernatant was quantified by LC/MS/MS using a Waters Xevo TQ MS (electrospray positive mode) coupled to a Waters Aquity® UPLC (BEH column, C18). Propafenone was used as the internal standard. GraphPad® Prism v 5.04 was used for nonlinear fitting of time course data to generate t1/2 values.

[2] = Stability in mouse plasma; type: in vitro ADME; settings: for Mouse Plasma Stability t1/2: 1 μM, 37° C.
Protocol: Stability in mouse plasma was tested as follows. The assay was conducted at 37° C. in triplicate. Test compound or procaine (positive control) was tested at a final concentration of 1 μM in either 2.5% DMSO/CD-1 mouse plasma (Innovative Research, Novi, MI; sodium heparin added as anticoagulant; pH adjusted to 7.4 with 2N HCl on day of use) or 2.5% DMSO/PBS (pH 7.4:136.9 mM NaCl, 2.68 mM KCl, 8.1 mM Na2HPO4, 1.47 mM KH2PO4, 0.9 mM CaCl2, 0.49 mM MgCl2). At seven time points, reaction mixture aliquots were transferred to 96-shallow well stop plates on ice containing acetonitrile with 0.1 μM propafenone. Samples were analyzed by LC/MS/MS on a Waters Xevo TQ instrument as described above using positive electrospray ionization. Assay acceptance criteria was 20% for all standards and 25% for the LLOQ. GraphPad® Prism v. 5.04 was used for nonlinear fitting of data to generate t1/2 values.

Compound	pIC50 (DLD1)	pIC50 (HCT116; 48 h)	pIC50 (MV4-11)	pIC50 (K562)	pIC50 (Kasumi-1)	pIC50 (KG1a)	Mic. Ctrl. Mouse % @60 min [1] [%]	Stability MLM t1/2 ([1]; mouse liver microsomes, in presence of NADPH, 37° C.) [min]	Mouse Plasma Stability t1/2 [2] [min]	pIC50 (DLD1; Homo sapiens, DLD-1)	pIC50 (HCT116; Homo sapiens, HCT-116, 48 h)	pIC50 (MV4-11; Homo sapiens, MV4-11)	pIC50 (K562; Homo sapiens, K562)	pIC50 (Kasumi-1; Homo sapiens, Kasumi 1)	pIC50 (KG1a; Homo sapiens, KG-1a)	half-life ([1]; male, CD-1, mouse liver microsomes, in presence of NADPH, 37° C., read-out: Stability MLM t1/2) [min]	Mic. Ctrl. Mouse % @60 min ([1]; without NADPH, percent remaining after 60 min incubation) [%]	Mic. Ctrl. Mouse % @60 min ([1]; without NADPH, percent remaining after 60 min incubation, listed as compound (Id))	half-life at 1 μM ([2]; CD-1, mouse, plasma, pH 7.4, 37° C., read-out: Mouse Plasma Stability t1/2) [min]
COc1ccc(/C=C2\N=C(C)N(c3ccc(CC(=O)NCc4ccccc4)cc3)C2=O)cc1 [KIM-161, reference compound]	5.76	5.75	6.44	6.55	6.78	6.55	112	14.8	>300										
CC1=N/C(=C\c2ccc(C)o2)C(=O)N1c1ccc(CC(=O)NCc2ccccc2)cc1 [Compound (Id), 2-Methyl-4-(5-methyl-2-furyl)methylene-1-[4-(benzylaminocarbonylmethyl)phenyl]-5-oxo-1H-imidazole]		5.84							>300	5.87	5.84	6.60	6.36	6.66	6.31	16.6	90	did not change	> 300
